PMC10030565, “Ubiquitous occurrence of a dimethylsulfoniopropionate ABC transporter in abundant marine bacteria” (The ISME Journal, 2023)

Tests used:
[1] = molecular target: RnDmpX (Roseovarius nubinhibens, UniProt A3SME7); test: ITC titration of DMSP into recombinant RnDmpX; format: binding, Roseovarius nubinhibens ISM
Source text: (§1) The genes encoding SBPs from R. pomeroyi DSS-3 or R. nubinhibens ISM were amplified from the genome of R. pomeroyi DSS-3 or R. nubinhibens ISM by PCR using FastPfu DNA polymerase (TransGen Biotech, China). The dmpX homologue from P. sp. strain HTCC7211 (locus tag HTCC7211_00013840) was synthesized by the Beijing Genomics Institute (China). The related genes were then cloned into the NdeI/XhoI restriction sites of the pET-22b vector (Novagen, Germany) with a C-terminal His tag. Point mutations in DmpX were introduced using the PCR-based method and verified by DNA sequencing. The SBPs and corresponding mutant forms were produced in E. coli BL21 (DE3). The cells were cultured in the LB medium with 0.1 mg/ml ampicillin at 37 °C to an OD600 of 0.8–1.0 and then induced at 18 °C for 16 h with 0.5 mM isopropyl-β-D-thiogalactopyranoside (IPTG). After induction, cells were collected by centrifugation, resuspended in the lysis buffer (50 mM Tris-HCl, 100 mM NaCl, 0.5% glycerol, pH 8.0), and lysed by a pressure crusher. The proteins were first purified by affinity chromatography on a Ni^2+-NTA column (GE Healthcare, US), and then fractionated by gel filtration on a Superdex G75 column (GE healthcare, US).
(§2) Isothermal titration calorimetry (ITC) measurements were performed at 25 °C using a MicroCal iTC200 system (GE Healthcare, US) or MicroCal PEAQ-ITC system (Malvern Panalytical, UK). […]

[2] = tested on: RnDmpX Tyr200Phe mutant; test: ITC titration of DMSP into RnDmpX Tyr200Phe mutant; format: binding, Roseovarius nubinhibens ISM; conditions: Tyr200 mutated to Phe
Source text: as §1, §2

[3] = tested on: SBP encoded by SPO1131; test: ITC titration of DMSP into recombinant SBP encoded by SPO1131; format: binding, Ruegeria pomeroyi DSS-3
Source text: as §1, §2

[4] = tested on: RnDmpX Tyr200Ala mutant; test: ITC titration of DMSP into RnDmpX Tyr200Ala mutant; format: binding, Roseovarius nubinhibens ISM; conditions: Tyr200 mutated to Ala
Source text: as §1, §2

[5] = molecular target: DmpX (SBP encoded by SPO2441) (Ruegeria pomeroyi, UniProt Q5LQP7); test: biochemical; format: binding, Ruegeria pomeroyi DSS-3; design: key to Dissociation constant (Kd): -: not detectable; conditions: ITC; for binding affinity (in words): DMSP analogues compared to DMSP; for Dissociation constant (Kd): dash = not detectable
DmpX (SBP encoded by SPO2441), sequence (Q5LQP7 entry or part of it): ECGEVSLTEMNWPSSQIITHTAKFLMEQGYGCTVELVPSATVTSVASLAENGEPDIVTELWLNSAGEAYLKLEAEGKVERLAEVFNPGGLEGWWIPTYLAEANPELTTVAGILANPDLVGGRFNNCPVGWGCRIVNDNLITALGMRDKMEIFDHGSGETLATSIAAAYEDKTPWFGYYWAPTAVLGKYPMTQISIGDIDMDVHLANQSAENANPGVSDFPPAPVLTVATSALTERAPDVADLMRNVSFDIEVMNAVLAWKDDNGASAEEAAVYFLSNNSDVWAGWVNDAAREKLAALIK
Source text: as §1
(§3) Isothermal titration calorimetry (ITC) measurements were performed at 25 °C using a MicroCal iTC200 system (GE Healthcare, US) or MicroCal PEAQ-ITC system (Malvern Panalytical, UK). The sample cell was loaded with 280 μl of protein sample (30–100 μM), and the reference cell contained distilled water. The syringe was filled with 40 μl of substrates (100 μM–1 mM). The proteins and substrates were kept in the same buffer containing 10 mM Tris-HCl (pH 8.0) and 100 mM NaCl.

[6] = tested on: SBP encoded by SPOA0231; test: ITC titration of DMSP into recombinant SBP encoded by SPOA0231; format: binding, Ruegeria pomeroyi DSS-3
Source text: as §1, §2

[7] = tested on: TmoX (encoded by SPO1548); design: method as in PMID 24550299, PMID 26283766; conditions: cited from earlier work
[8] = molecular target: DmpX^7211 (Candidatus Pelagibacter sp. HTCC7211, UniProt B6BQI1); test: ITC titration of substrates into recombinant DmpX^7211; format: binding; design: key: -: not detectable; conditions: dash = not detectable
DmpX^7211, sequence (B6BQI1 27-337 limits assumed): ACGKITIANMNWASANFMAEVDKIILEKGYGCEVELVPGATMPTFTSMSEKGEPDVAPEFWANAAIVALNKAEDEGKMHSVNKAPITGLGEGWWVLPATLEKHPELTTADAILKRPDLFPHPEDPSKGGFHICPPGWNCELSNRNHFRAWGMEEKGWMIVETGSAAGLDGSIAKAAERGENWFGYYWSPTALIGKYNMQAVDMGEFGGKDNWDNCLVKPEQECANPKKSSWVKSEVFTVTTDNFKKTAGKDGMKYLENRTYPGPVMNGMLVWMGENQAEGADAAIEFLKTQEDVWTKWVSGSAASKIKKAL
Source text: as §1, §3

[9] = tested on: R. pomeroyi DSS-3 WT; test: Uptake of 14C-labeled DMSP, wild-type; format: cell-based, Ruegeria pomeroyi DSS-3; conditions: 5 min, 30 °C, mean ± S.D. n = 3
Protocol: (§4) Triplicates of 1 µl ^14C:^12C-DMSP in 3 ml scintillation fluid (EcoLume Liquid Scintillation Cocktail, MP Biomedical, US) were measured on a liquid scintillation analyzer (Tri-Carb 2800TR, Perkin Elmer, UK) after overnight equilibration.
(§5) A single colony of R. pomeroyi DSS-3 WT, ΔdmpXWV mutant, or complemented ΔdmpXWV mutant was inoculated into 5 ml of marine broth medium (MB) and grown overnight at 30 °C under constant shaking (170 rpm). 1 ml preculture was inoculated into 50 ml MB and grown at 30 °C with shaking (130 rpm) until an OD540 of ~0.5-0.7 was reached, then used for DMSP uptake assays.
(§6) Due to a relatively low radiochemical and mid-millimolar range molar concentration of the ^14C:^12C-DMSP stock, we could not conduct uptake kinetics experiments. Instead, we used three DMSP concentrations (50, 150, and 300 µM) and added them to 3 ml of cultures in biological triplicates. Cells were incubated at 30 °C with shaking (130 rpm) for 5 min, filtered onto 0.2 µm pore size Supor filters (∅ 25 mm, Pall Corporation, US), and washed 3x with 1 ml MB medium. Wet filters were transferred to 6 ml scintillation vials and 3 ml EcoLume Liquid Scintillation Cocktail added. After equilibration overnight, samples were measured on a Tri-Carb 2800TR liquid scintillation analyzer. Cells fixed in 2% (vol/vol) freshly prepared paraformaldehyde solution for >15 min at 4 °C in the dark prior to radioisotope addition were used for background correction. Uptake rates were normalized by cell number.
(§7) Bacterial cell numbers used for normalization of uptake rates were determined by flow cytometry. […] 75 to 200-fold sample dilutions in sterile TE buffer (10 mM Tris-HCl, 1 mM EDTA, pH 8.0) were counted in analytical triplicates on a CytoFLEX flow cytometer (Beckman Coulter, UK) at a flow rate of 30 µl min^-1 for 60 sec. The instrument was equipped with a 50 mW 488 nm solid-state diode laser with standard filters and the discriminator set to 525 nm (green fluorescence) (Fig. S1).

[10] = tested on: R. pomeroyi DSS-3 ΔdmpXWV::Gm mutant; test: Uptake of 14C-labeled DMSP, ΔdmpXWV::Gm mutant; format: cell-based, Ruegeria pomeroyi DSS-3; conditions: for Uptake rate: ΔdmpXWV::Gm, 5 min, 30 °C, mean ± S.D. n = 3
Protocol: Bacterial cell numbers used for normalization of uptake rates were determined by flow cytometry [41]. 1 ml culture was fixed with a final concentration of 0.5% (vol/vol) glutaraldehyde (Electron microscopy grade, BDH, AE) for 30 min at 4 °C, snap frozen in liquid nitrogen, and stored at –80 °C. Samples were thawed at 37 °C for 5 min, stained with SYBR gold (Invitrogen, US) (final concentration 10^-4 of commercial stock) for 10 min at 60 °C in the dark. 75 to 200-fold sample dilutions in sterile TE buffer (10 mM Tris-HCl, 1 mM EDTA, pH 8.0) were counted in analytical triplicates on a CytoFLEX flow cytometer (Beckman Coulter, UK) at a flow rate of 30 µl min^-1 for 60 sec. The instrument was equipped with a 50 mW 488 nm solid-state diode laser with standard filters and the discriminator set to 525 nm (green fluorescence) (Fig. S1).

[11] = tested on: R. pomeroyi DSS-3 complemented mutant ΔdmpXWV::Gm; test: Uptake of 14C-labeled DMSP, complemented ΔdmpXWV::Gm mutant; format: cell-based, Ruegeria pomeroyi DSS-3; conditions: for Uptake rate: complemented mutant ΔdmpXWV::Gm, 5 min, 30 °C, mean ± S.D. n = 3
Source text: To create the ΔdmpXWV knockout mutant regions of homology at the 5′ and 3′ ends of dmpXWV were amplified, alongside the gentamicin cassette from the p34s-Gm plasmid. Amplified DNA fragments were assembled into linearised pk18mobsacB using the HiFi assembly kit (New England Biolabs) according to the manufacturer’s instructions. To construct the complementation plasmid, dmpXWV was cloned into linearised pBBR1McS-km using the HiFi assembly kit. Plasmids were electroporated into competent Escherichia coli S17.1 λpir and conjugated into R. pomeroyi DSS-3. The knockout mutant was selected onto minimal media plates containing gentamicin (10 µg/ml), with resultant colonies screened for kanamycin resistance. Kanamycin-sensitive clones were PCR screened and products sequenced to confirm a double crossover. The complemented mutant strain was selected on MB plates containing gentamicin (10 µg/ml) and kanamycin (80 µg/ml), and colonies confirmed by PCR screening and sequencing.
as §4, §5
as §6, with “Cells fixed in 2% (vol/vol) freshly prepared paraformaldehyde solution for >15 min at 4 °C in the dark prior to radioisotope addition were used for background correction. Uptake rates were normalized by cell number.” left out
as §7

RnDmpX, sequence (A3SME7 entry or part of it): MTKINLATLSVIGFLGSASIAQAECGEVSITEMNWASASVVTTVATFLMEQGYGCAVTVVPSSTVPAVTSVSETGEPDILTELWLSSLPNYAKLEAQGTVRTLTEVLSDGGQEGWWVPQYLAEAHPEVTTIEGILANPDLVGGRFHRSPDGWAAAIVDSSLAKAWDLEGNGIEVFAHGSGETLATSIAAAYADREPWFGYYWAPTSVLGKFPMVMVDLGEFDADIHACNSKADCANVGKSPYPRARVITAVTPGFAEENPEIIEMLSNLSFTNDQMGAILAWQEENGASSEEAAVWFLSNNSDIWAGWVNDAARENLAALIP

SMILES: C[S+](C)CCC(=O)[O-] [DMSP, Dimethylsulfoniopropionate]
- Kd [1]: 474 nM
- binding affinity for DMSP (in words) [2]: abolished
- high binding affinity for DMSP (in words) [3]: did not
- binding affinity for DMSP (in words) [4]: abolished
- Kd ([5]; 25 °C, 10 mM Tris-HCl pH 8.0, 100 mM NaCl, SPO2441 (DmpX), read-out: Dissociation constant (Kd)): 1100 nM
- high binding affinity for DMSP (in words) [6]: did not
- binding affinity to DMSP (in words) [7]: does not show any binding affinity

SMILES: C[N+](C)(C)CC(=O)O [GBT, glycine betaine]
- binding affinity (in words) [5]: little binding affinity
- Dissociation constant (Kd) ([5]; SPO2441 (DmpX)): -
- Dissociation constant (Kd) [8]: -

SMILES: C[N+](C)(C)[O-] [TMAO, trimethylamine N-oxide]
- binding affinity (in words) [5]: little binding affinity
- Dissociation constant (Kd) ([5]; SPO2441 (DmpX)): -
- Dissociation constant (Kd) [8]: -

SMILES: C[S+](C)CCC(=O)[O-] [^14C-DMSP, [1-^14C]DMSP]
- Uptake rate ([9]; DMSP concentration 50 µM): 1.852 ± 0.100 fmol cell^-1 min^-1
- Uptake rate ([9]; DMSP concentration 150 µM): 2.267 ± 0.189 fmol cell^-1 min^-1
- Uptake rate ([9]; DMSP concentration 300 µM): 3.095 ± 0.081 fmol cell^-1 min^-1
- reduction of uptake in the mutant in comparison to the wild-type ([10]; 50 μM DMSP, p < 0.001): ~ 5 times
- decrease of uptake in the mutant in comparison to the wild-type ([10]; 300 μM DMSP, p < 0.001): ~ 3 times
- Uptake rate ([10]; DMSP concentration 50 µM): 0.522 ± 0.040 fmol cell^-1 min^-1
- Uptake rate ([10]; DMSP concentration 300 µM): 1.344 ± 0.150 fmol cell^-1 min^-1
- restoration of import by complementation with dmpXWV (in words) ([11]; complemented mutant versus ΔdmpXWV::Gm): partly restore
- Uptake rate ([11]; DMSP concentration 50 µM): 0.946 ± 0.299 fmol cell^-1 min^-1
- Uptake rate ([11]; DMSP concentration 150 µM): 1.221 ± 0.159 fmol cell^-1 min^-1
- Uptake rate ([11]; DMSP concentration 300 µM): 1.893 ± 0.084 fmol cell^-1 min^-1

SMILES: C[N+](C)(C)CC(O)CC(=O)[O-] (centres unmarked) [carnitine]
- binding affinity (in words) [5]: little binding affinity
- Dissociation constant (Kd) ([5]; SPO2441 (DmpX)): -
- Dissociation constant (Kd) [8]: -

SMILES: C[N+](C)(C)CCO [choline]
- binding affinity (in words) [5]: little binding affinity
- Dissociation constant (Kd) ([5]; SPO2441 (DmpX)): -
